Assay results published in patent US20260021186A1, “Fatty Acid-D-Amino Acid Peptides Conjugates as Anaplerotic Compounds for Use in Treating Propionic Acidemia, Methylmalonic Acidurias, and Energy Metabolic Disorders” (University of Pittsburgh - Of the Commonwealth System of …, priority 2022, published 2026).

Tested on: HEK293 PCCA−/− cells
Test: Lysine succinylation of cellular proteins by immunofluorescence confocal microscopy
Assay type: cell-based, human
Details: FIGS. 9C, 9D; 30 μM and 90 μM; media without glucose, pyruvate, and glutamine
Method: FIGS. 9A-9F are a comparison of lysine succinylation of cellular proteins visualized by immunofluorescence confocal microscopy in human HEK293 control and HEK293 PCCA^−/− cells untreated (FIGS. 9A and 9B) and treated with 30 μM and 90 μM of PMA007 (FIG. 9C) or 30 μM and 90 μM of PMA010 (FIG. 9D). The cells in FIGS. 9B, 9C, and 9D were grown in media without glucose, pyruvate, and glutamine. Scale bar=20 μm. FIG. 9E is a bar graph showing the quantification of the percent change in lysine succinylation (green) signal, from the immunofluorescence confocal micrographs of FIGS. 9B and 9C, in response to the treatment of PMA007. FIG. 9F is a bar graph showing the quantification of the percent change in lysine succinylation (green) signal, from the immunofluorescence confocal micrographs of FIGS. 9B and 9D, in response to the treatment of PMA010. Asterisks indicate statistical significance calculated at the raw data level (n=3); **P<0.01. ****P<0.0001 statistically compared to untreated. Statistical analysis used T-test.
FIGS. 9A-9F are a comparison of lysine succinylation of cellular proteins visualized by immunofluorescence confocal microscopy in human HEK293 control and in untreated and treated HEK293 PCCA^−/− knock out cells. […] The PMA007 treatment data in the bar graph of FIG. 9E are the quantitation of the images of FIG. 9C compared to untreated control in FIG. 9B. […]

Question: How did the “lysine succinylation (green) signal” value turn out when C[C@@H](NC(=O)CCCCC(=O)O)C(=O)N[C@H](Cc1c[nH]cn1)C(=O)O [PMA010, 6-(((R)-1-(((R)-1-carboxy-2-(1H-imidazol-4-yl)ethyl)amino)-1-oxopropan-2-yl)amino)-6-oxohexanoic acid] was run?
Answer: green color was restored
